This test concerns the target T1, BACE2 (Rattus norvegicus, UniProt Q6IE75).
T1 construct: endogenous cellular BACE2 in the Ins1e rat cell line; endogenous in cells; host or cells: INS-TMEM27 (INS1e-derived rat beta-cell line with doxycycline-inducible full-length hTMEM27)
T1 sequence (Q6IE75 63-514): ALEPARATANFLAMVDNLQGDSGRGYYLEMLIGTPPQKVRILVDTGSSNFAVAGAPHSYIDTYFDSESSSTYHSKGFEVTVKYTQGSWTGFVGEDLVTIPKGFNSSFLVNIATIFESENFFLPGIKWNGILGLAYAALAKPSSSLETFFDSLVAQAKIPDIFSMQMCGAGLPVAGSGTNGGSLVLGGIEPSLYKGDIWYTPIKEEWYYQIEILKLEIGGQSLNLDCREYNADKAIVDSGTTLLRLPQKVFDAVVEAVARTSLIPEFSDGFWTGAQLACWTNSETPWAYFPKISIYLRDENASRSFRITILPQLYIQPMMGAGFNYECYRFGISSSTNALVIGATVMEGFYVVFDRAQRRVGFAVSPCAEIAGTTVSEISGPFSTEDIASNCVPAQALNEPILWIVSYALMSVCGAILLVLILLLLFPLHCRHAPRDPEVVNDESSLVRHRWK
In words: Assay for BACE inhibition by measuring cellular TMEM27 cleavage (INS-TMEM27 cells, ELISA of shed TMEM27). The class given is cell-based. To be noted: inhibition of human TMEM27 cleavage by endogenous cellular BACE2 in INS1e-derived INS-TMEM27 rat cell line; ELISA of shed TMEM27 in supernatant. From the text: Assay for […] Inhibition by Measuring Cellular TMEM27 Cleavage
This assay uses the principle of inhibition of human TMEM27 cleavage by endogenous cellular BACE2 in the Ins1e rat cell line and shedding from the cell surface into the culture medium, followed by detection in an ELISA assay. Inhibition of BACE2 prevents the cleavage and shedding in a dose-dependent manner.
The stable cell line “INS-TMEM27” represents an INS1e-derived cell line with inducible expression (using the TetOn system) of full-length hTMEM27 in a doxycycline-dependent manner. The cells were cultured throughout the experiment in RPMI1640+Glutamax (Invitrogen) Penicillin/Streptomycin, 10% Fetal bovine serum, 100 mM pyruvate, […] beta-mercatptoethanol, 100 micrograms/ml G418 and 100 microgram/ml hygromycin and were grown in adherent culture at 37° C. in a standard CO2 cell culture incubator.
INS-TMEM27 cells were seeded in 96-well plates. After 2 days in culture, BACE2 inhibitor was added in a range of concentrations as required by the assay and after a further two hours, doxycycline was added to a final concentration of 500 ng/ml. The cells were incubated for a further 46 hours and the supernatant harvested for detection of shed TMEM27.
An ELISA assay (using a pair of mouse anti-human-TMEM27 antibodies, raised against the extracellular domain of TMEM27) was used for detection of TMEM27 in the culture medium. An IC50 for BACE2 inhibition was calculated using the ELISA readout for each inhibitor concentration with standard curve-fitting software.
The inhibitory activity, given as an IC50 value, of the compounds of Examples 1 to 32 and 34 to 74 were as follows.

pIC50: −log10 of the molar value.

`Cc1cc(C2CCCN2C(=O)c2cccc(C(=O)N[C@@H](Cc3ccccc3)[C@H](O)CNCc3cccc(OC(F)(F)F)c3)c2)on1` (stereo partly drawn) [Example 26, N-[(1S,2R)-1-Benzyl-2-hydroxy-3-(3-trifluoromethoxy-benzylamino)-propyl]-3-[2-(3-methyl-isoxazol-5-yl)-pyrrolidine-1-carbonyl]-benzamide]: the pIC50 was 6.55.

As to `O=C(N[C@@H](Cc1ccccc1)[C@H](O)CNCc1cccc(OC(F)(F)F)c1)c1cccc(C(=O)N2CCCC2c2ccccc2)c1` (stereo partly drawn) [Example 24, N-[(1S,2R)-1-Benzyl-2-hydroxy-3-(3-trifluoromethoxy-benzylamino)-propyl]-3-(2-phenyl-pyrrolidine-1-carbonyl)-benzamide], the pIC50 is 7.17.

Molecule `Cc1csc(CN(C)C(=O)c2cc(C(=O)N[C@@H](Cc3ccccc3)[C@H](O)CNCc3cncc(C(C)(C)F)c3)cc(N(C)S(C)(=O)=O)c2)n1` [Example 74, N-((1S,2R)-1-Benzyl-3-{[5-(1-fluoro-1-methyl-ethyl)-pyridin-3-ylmethyl]-amino}-2-hydroxy-propyl)-5-(methanesulfonyl-methyl-amino)-N′-methyl-N′-(4-methyl-thiazol-2-ylmethyl)-isophthalamide] showed a pIC50 of 6.59.

`O=C(N[C@@H](Cc1ccccc1)[C@H](O)CNCc1cccc(C(F)(F)F)c1)c1cccc(C(=O)N2CCCC2C2CCCC2)c1` (stereo partly drawn) [Example 72, N-[(1S,2R)-1-Benzyl-2-hydroxy-3-(3-trifluoromethyl-benzylamino)-propyl]-3-(2-cyclopentyl-pyrrolidine-1-carbonyl)-benzamide] showed a pIC50 of 7.18.

As to `O=C(N[C@@H](Cc1ccccc1)[C@H](O)CNCc1cccc(C(F)(F)F)c1)c1cccc(C(=O)N2CCC[C@H]2c2ccc(F)cc2)c1` [Example 67, N-[(1S,2R)-1-Benzyl-2-hydroxy-3-(3-trifluoromethyl-benzylamino)-propyl]-3-[(S)-2-(4-fluoro-phenyl)-pyrrolidine-1-carbonyl]-benzamide], the pIC50 is 8.40.

“N-[(1S,2R)-1-Benzyl-2-hydroxy-3-(3-trifluoromethyl-benzylamino)-propyl]-3-(methanesulfonyl-methyl-amino)-5-(2-phenyl-pyrrolidine-1-carbonyl)-benzamide [Example 50]” showed a pIC50 of 8.52. The pIC50 values of the last two molecules are within 0.2 log units of each other.

`O=C(N[C@@H](Cc1ccccc1)[C@H](O)CNCc1cccc(C(F)(F)F)c1)c1cccc(C(=O)N2CCCC2c2ccncc2)c1` (stereo partly drawn) [Example 5, N-[(1S,2R)-1-Benzyl-2-hydroxy-3-(3-trifluoromethyl-benzylamino)-propyl]-3-(2-pyridin-4-yl-pyrrolidine-1-carbonyl)-benzamide]: the pIC50 is 6.85.

`CC(=O)C1CC(c2ccc(F)cc2)N(C(=O)c2cccc(C(=O)N[C@@H](Cc3ccccc3)[C@H](O)CNCc3cccc(C(F)(F)F)c3)c2)C1` (stereo partly drawn) [Example 64, 3-[4-Acetyl-2-(4-fluoro-phenyl)-pyrrolidine-1-carbonyl]-N-[(1S,2R)-1-benzyl-2-hydroxy-3-(3-trifluoromethyl-benzylamino)-propyl]-benzamide] gave a pIC50 of 7.59.

In turn, `CCn1cc(CNC[C@@H](O)[C@H](Cc2ccccc2)NC(=O)c2cc(C(=O)N3CCCC3c3cccs3)cc(N(C)S(C)(=O)=O)c2)cn1` (stereo partly drawn) [Example 38, N-{(1S,2R)-1-Benzyl-3-[(1-ethyl-1H-pyrazol-4-ylmethyl)-amino]-2-hydroxy-propyl}-3-(methanesulfonyl-methyl-amino)-5-(2-thiophen-2-yl-pyrrolidine-1-carbonyl)-benzamide] gave a pIC50 of 9.52. Compared with the last molecule, the pIC50 is 1.93 log units higher.

Take `Cc1cc(C(=O)N[C@@H](Cc2ccccc2)[C@H](O)CNCc2cccc(C(F)(F)F)c2)cc(C(=O)N2CCCC2c2cccs2)c1` (stereo partly drawn) [Example 54, N-[(1S,2R)-1-Benzyl-2-hydroxy-3-(3-trifluoromethyl-benzylamino)-propyl]-3-methyl-5-(2-thiophen-2-yl-pyrrolidine-1-carbonyl)-benzamide]: the pIC50 is 8.72.

The record behind these values is patent US20120053200A1, “BACE 2 INHIBITORS” (priority 2010, published 2012).
